In ChEMBL document CHEMBL1909046, “DrugMatrix in vitro pharmacology data”:
pIC50, pKi: −log10 of the molar value.

Assays:
[1] = biological target: 5-hydroxytryptamine receptor 6 (Homo sapiens, UniProt P50406); assay type: cell membranes, HeLa, Membrane; conditions: for pIC50: read-out: IC50; for pKi: read-out: Ki; on all read-outs here: in other assays of this panel Not Active means under 50% inhibition at 10 µM
[2] = biological target: Matrix metalloproteinase-9 (Homo sapiens, UniProt P14780); assay type: cell-based;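 further: inhibition of isolated MMP-9 enzyme activity toward a synthetic peptide substrate, from the DrugMatrix protease screening panel; in other assays of this panel Not Active means under 50% inhibition at 10 µM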
Matrix metalloproteinase-9, sequence (P14780 whole entry): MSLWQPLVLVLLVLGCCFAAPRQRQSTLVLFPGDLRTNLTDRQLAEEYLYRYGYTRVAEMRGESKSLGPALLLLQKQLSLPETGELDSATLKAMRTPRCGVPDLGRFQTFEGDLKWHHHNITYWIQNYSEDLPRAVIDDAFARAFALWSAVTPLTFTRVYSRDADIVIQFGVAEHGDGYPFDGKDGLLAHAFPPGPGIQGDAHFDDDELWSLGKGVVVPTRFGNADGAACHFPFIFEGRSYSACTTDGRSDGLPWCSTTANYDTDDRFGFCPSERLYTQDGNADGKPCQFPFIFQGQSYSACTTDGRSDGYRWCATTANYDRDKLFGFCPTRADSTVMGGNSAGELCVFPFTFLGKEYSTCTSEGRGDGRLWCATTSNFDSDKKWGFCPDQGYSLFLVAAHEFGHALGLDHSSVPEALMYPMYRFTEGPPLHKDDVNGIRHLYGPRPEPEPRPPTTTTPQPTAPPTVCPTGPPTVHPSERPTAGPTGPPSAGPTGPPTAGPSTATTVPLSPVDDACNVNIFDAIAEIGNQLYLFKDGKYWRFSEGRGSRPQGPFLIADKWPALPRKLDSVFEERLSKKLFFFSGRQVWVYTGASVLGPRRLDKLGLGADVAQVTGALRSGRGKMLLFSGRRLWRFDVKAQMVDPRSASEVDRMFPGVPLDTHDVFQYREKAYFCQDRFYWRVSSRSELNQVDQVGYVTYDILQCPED

Vasopressin V1a receptor = Vasopressin V1a receptor (Homo sapiens, UniProt P37288); assay type: cell membranes, Membrane; conditions: hek293; further: in other assays of this panel Not Active means under 50% inhibition at 10 µM
Vasopressin V1a receptor, sequence (P37288 whole entry): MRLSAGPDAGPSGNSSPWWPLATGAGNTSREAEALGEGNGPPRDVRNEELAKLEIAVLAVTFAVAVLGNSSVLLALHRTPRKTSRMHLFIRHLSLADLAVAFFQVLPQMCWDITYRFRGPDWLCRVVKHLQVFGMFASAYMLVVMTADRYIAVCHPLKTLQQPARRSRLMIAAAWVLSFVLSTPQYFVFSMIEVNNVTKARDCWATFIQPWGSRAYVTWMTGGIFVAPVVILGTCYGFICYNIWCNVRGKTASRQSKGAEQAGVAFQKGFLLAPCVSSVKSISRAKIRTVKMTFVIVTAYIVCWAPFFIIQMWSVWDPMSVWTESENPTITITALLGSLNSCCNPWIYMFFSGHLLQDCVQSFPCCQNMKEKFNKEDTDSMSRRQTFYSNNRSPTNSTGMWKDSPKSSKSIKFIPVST

Nitric oxide synthase 1 = Nitric oxide synthase 1 (Rattus norvegicus, UniProt P29476); assay type: tissue-based, Cerebellum; further: in other assays of this panel Not Active means under 50% inhibition at 10 µM
Nitric oxide synthase 1, sequence (P29476 whole entry): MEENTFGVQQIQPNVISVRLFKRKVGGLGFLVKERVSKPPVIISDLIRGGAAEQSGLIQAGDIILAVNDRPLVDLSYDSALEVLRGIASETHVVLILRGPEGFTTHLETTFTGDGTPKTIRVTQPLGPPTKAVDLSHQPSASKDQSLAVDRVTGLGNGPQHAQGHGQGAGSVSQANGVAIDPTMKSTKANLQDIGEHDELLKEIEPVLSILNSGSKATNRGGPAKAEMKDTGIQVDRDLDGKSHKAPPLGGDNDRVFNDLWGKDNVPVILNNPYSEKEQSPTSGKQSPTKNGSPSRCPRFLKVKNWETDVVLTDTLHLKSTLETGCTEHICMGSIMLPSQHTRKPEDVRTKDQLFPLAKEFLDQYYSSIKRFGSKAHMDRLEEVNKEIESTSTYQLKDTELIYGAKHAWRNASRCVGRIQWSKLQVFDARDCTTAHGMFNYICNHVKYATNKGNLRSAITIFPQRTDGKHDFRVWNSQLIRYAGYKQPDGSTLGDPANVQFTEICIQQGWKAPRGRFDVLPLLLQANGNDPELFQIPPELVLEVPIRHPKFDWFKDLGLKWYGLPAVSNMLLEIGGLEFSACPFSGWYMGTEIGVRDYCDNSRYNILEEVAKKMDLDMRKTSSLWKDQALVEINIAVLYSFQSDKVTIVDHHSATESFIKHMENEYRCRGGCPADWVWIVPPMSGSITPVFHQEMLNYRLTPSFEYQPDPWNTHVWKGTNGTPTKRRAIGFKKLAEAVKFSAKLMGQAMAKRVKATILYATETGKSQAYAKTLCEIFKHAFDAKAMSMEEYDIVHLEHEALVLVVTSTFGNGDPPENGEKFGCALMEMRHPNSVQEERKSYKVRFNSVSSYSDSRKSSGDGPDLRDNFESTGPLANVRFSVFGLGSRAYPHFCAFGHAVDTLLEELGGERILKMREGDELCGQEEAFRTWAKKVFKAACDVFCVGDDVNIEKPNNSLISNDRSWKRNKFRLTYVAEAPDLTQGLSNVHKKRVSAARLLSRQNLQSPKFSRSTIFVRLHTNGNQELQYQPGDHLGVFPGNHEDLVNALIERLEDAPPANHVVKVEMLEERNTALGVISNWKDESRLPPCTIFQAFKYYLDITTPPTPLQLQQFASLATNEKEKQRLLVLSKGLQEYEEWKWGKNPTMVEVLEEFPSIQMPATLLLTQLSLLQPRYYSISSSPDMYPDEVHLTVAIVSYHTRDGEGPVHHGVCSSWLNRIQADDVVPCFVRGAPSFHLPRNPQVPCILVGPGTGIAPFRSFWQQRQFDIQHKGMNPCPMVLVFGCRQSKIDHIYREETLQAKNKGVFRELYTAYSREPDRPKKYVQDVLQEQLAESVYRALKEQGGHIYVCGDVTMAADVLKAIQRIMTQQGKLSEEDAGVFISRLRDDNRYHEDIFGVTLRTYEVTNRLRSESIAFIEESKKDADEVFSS

Adenosine receptor A2a = Adenosine receptor A2a (Homo sapiens, UniProt P29274); experiment: DRUGMATRIX: Adenosine A2A radioligand binding (ligand: […]); assay type: cell membranes, HEK293, Membrane; conditions: hek293; Not Active = under 50% inhibition at 10 µM
Adenosine receptor A2a, sequence (P29274 whole entry): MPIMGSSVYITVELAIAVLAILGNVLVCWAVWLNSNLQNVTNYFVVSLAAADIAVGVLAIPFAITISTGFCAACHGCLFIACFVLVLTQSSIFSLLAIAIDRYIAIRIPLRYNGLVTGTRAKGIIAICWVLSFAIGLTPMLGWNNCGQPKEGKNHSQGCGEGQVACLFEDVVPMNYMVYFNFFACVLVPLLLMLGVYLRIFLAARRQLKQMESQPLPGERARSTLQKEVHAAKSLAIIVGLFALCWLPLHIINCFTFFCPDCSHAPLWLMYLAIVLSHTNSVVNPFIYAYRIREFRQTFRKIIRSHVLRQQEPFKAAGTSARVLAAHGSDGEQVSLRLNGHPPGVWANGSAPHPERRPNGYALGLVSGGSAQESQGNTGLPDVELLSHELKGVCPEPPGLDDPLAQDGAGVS

[3] = biological target: T1, C-C chemokine receptor type 4 (Homo sapiens, UniProt P51679); assay type: cell membranes, Chem-1, Membrane; conditions: chem-1; further: in other assays of this panel Not Active means under 50% inhibition at 10 µM
T1 sequence (P51679 whole entry): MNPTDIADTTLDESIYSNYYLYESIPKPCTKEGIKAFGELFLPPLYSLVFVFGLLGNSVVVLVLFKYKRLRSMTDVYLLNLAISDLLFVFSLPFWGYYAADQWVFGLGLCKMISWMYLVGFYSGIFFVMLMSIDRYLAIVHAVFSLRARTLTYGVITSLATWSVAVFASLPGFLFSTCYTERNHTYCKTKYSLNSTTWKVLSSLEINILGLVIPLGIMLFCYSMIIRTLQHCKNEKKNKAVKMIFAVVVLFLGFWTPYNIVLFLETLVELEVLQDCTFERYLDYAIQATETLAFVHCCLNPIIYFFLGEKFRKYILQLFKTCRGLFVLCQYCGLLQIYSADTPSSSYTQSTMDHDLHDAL

[4] = biological target: Receptor tyrosine-protein kinase erbB-2 (Homo sapiens, UniProt P04626); assay type: cell-based; conditions: insect cells
[5] = biological target: T2, Receptor-type tyrosine-protein phosphatase C (Homo sapiens, UniProt P08575); parameters: species or system Escherichia coli
T2 sequence (P08575 whole entry): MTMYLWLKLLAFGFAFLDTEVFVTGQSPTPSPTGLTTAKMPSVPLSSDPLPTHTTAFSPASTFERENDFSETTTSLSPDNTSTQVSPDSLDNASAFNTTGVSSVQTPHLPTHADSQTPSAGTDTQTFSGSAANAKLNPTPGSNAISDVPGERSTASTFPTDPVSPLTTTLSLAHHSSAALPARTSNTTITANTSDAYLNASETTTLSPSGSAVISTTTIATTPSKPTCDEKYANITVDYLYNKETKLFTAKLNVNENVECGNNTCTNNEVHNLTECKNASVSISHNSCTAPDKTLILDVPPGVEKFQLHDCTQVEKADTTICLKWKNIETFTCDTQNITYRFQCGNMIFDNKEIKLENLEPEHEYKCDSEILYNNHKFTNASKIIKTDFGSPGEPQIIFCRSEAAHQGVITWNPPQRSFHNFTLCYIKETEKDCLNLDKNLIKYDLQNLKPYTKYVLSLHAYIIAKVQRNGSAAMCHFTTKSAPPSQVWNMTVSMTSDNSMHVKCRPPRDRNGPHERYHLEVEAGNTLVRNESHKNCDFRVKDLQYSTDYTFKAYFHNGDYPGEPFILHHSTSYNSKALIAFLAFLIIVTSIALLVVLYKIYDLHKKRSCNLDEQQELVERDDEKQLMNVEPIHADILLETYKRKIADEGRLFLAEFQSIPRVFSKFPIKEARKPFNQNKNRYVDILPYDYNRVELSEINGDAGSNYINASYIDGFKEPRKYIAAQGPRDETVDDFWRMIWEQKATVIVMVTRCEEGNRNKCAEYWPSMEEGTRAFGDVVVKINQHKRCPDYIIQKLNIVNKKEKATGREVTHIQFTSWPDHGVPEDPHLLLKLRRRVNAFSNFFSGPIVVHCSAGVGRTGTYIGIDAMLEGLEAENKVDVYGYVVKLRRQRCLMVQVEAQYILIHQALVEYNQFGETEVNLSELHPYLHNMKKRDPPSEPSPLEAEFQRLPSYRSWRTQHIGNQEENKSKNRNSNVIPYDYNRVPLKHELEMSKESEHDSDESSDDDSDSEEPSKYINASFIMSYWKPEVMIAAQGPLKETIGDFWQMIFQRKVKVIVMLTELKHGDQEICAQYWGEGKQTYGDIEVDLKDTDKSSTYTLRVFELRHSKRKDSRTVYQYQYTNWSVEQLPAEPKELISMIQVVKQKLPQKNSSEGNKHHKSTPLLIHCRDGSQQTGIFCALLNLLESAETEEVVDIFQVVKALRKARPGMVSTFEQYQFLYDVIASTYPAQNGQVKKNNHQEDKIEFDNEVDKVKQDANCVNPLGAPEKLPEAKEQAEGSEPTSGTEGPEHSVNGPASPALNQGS

5-hydroxytryptamine receptor 6, sequence (P50406 whole entry): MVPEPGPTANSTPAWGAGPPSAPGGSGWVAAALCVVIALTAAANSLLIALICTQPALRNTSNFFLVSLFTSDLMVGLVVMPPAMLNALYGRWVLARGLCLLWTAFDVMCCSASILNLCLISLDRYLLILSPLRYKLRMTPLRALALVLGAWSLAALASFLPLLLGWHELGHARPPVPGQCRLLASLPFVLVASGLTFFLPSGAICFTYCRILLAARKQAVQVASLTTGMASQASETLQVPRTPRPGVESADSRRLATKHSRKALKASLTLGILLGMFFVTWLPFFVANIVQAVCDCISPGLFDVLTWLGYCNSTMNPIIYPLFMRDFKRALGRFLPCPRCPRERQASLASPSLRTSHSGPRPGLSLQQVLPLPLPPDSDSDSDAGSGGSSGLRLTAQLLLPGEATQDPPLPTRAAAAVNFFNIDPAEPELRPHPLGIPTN

Compound	IC50 ([1]; hela)	IC50 [2]	IC50 (Vasopressin V1a receptor)	IC50 (Nitric oxide synthase 1)	IC50 (Adenosine receptor A2a)	IC50 [3]	IC50 [4]	IC50 [5]	Ki ([1]; hela)	Ki [2]	Ki (Vasopressin V1a receptor)	Ki (Nitric oxide synthase 1)	Ki (Adenosine receptor A2a)	Ki [3]	Ki [4]	Ki [5]	pIC50 [1]	pKi [1]
CC(=O)[C@]1(O)Cc2c(O)c3c(c(O)c2[C@@H](O[C@H]2C[C@H](N)[C@H](O)[C@H](C)O2)C1)C(=O)c1ccccc1C3=O [IDARUBICIN]	Not Active	Not Active	Not Active	Not Active	Not Active	Not Active	Not Active	Not Active	–	–	–	–	–	–	–	–	–	–
COC(=O)Nc1nc2ccc(Sc3ccccc3)cc2[nH]1 [FENBENDAZOLE]	Not Active	Not Active	Not Active	Not Active	Not Active	Not Active	Not Active	Not Active	–	–	–	–	–	–	–	–	–	–
Cc1ccnc2c1NC(=O)c1cccnc1N2C1CC1 [NEVIRAPINE]	Not Active	Not Active	Not Active	Not Active	Not Active	Not Active	Not Active	Not Active	–	–	–	–	–	–	–	–	–	–
COPPER(II) OXIDE	Not Active	Not Active	Not Active	Not Active	Not Active	Not Active	Not Active	Not Active	Not Active	Not Active	Not Active	Not Active	Not Active	Not Active	Not Active	Not Active	–	–
OC[C@H]1O[C@@H]2O[C@H]3[C@H](O)[C@@H](O)[C@@H](O[C@H]4[C@H](O)[C@@H](O)[C@@H](O[C@H]5[C@H](O)[C@@H](O)[C@@H](O[C@H]6[C@H](O)[C@@H](O)[C@@H](O[C@H]7[C@H](O)[C@@H](O)[C@@H](O[C@H]8[C@H](O)[C@@H](O)[C@@H](O[C@H]1[C@H](O)[C@H]2O)O[C@@H]8CO)O[C@@H]7CO)O[C@@H]6CO)O[C@@H]5CO)O[C@@H]4CO)O[C@@H]3CO [BETADEX]	Not Active	Not Active	Not Active	Not Active	Not Active	Not Active	Not Active	Not Active	–	–	–	–	–	–	–	–	–	–
O=C(O)CO [GLYCOLIC ACID]	Not Active	Not Active	Not Active	Not Active	Not Active	Not Active	Not Active	Not Active	–	–	–	–	–	–	–	–	–	–
COc1cc(NC(C)CCCN)c2ncccc2c1 (configuration not stated) [PRIMAQUINE]	Not Active	Not Active	Not Active	Not Active	Not Active	Not Active	Not Active	Not Active	–	–	–	–	–	–	–	–	–	–
COc1ccc(Cl)cc1C(=O)NCCc1ccc(S(=O)(=O)NC(=O)NC2CCCCC2)cc1 [GLYBURIDE]	Not Active	Not Active	Not Active	Not Active	Not Active	Not Active	Not Active	Not Active	–	–	–	–	–	–	–	–	–	–
CCO [ALCOHOL]	Not Active	Not Active	Not Active	Not Active	Not Active	Not Active	Not Active	Not Active	–	–	–	–	–	–	–	–	–	–
CC(C)(c1ccc(O)cc1)c1ccc(O)cc1 [BISPHENOL A]	–	Not Active	Not Active	Not Active	Not Active	Not Active	Not Active	Not Active	–	–	–	–	–	–	–	–	5.27	5.60
CC12CCC(CC1=O)C2(C)C (configuration not stated) [CAMPHOR]	Not Active	Not Active	Not Active	Not Active	Not Active	Not Active	Not Active	Not Active	–	–	–	–	–	–	–	–	–	–
O=C(O)c1ccccc1 [BENZOIC ACID]	Not Active	Not Active	Not Active	Not Active	Not Active	Not Active	Not Active	Not Active	–	–	–	–	–	–	–	–	–	–
Oc1ncnc2[nH]ncc12 [ALLOPURINOL]	Not Active	Not Active	Not Active	Not Active	Not Active	Not Active	Not Active	Not Active	–	–	–	–	–	–	–	–	–	–
NC(=O)CN1CCCC1=O	Not Active	Not Active	Not Active	Not Active	Not Active	Not Active	Not Active	Not Active	–	–	–	–	–	–	–	–	–	–
C=CCO [ALLYL ALCOHOL]	Not Active	Not Active	Not Active	Not Active	Not Active	Not Active	Not Active	Not Active	–	–	–	–	–	–	–	–	–	–
CCN1CCN(C(=O)N[C@@H](C(=O)N[C@@H]2C(=O)N3[C@@H]2SC(C)(C)[C@@H]3C(=O)O)c2ccccc2)C(=O)C1=O [PIPERACILLIN]	Not Active	Not Active	Not Active	Not Active	Not Active	Not Active	Not Active	Not Active	–	–	–	–	–	–	–	–	–	–
CCCCCCNC(=O)n1cc(F)c(=O)[nH]c1=O [CARMOFUR]	Not Active	Not Active	Not Active	Not Active	Not Active	Not Active	Not Active	Not Active	–	–	–	–	–	–	–	–	–	–
CCN(CCO)CCCC(C)Nc1ccnc2cc(Cl)ccc12 (configuration not stated) [HYDROXYCHLOROQUINE]	Not Active	Not Active	Not Active	Not Active	Not Active	Not Active	Not Active	Not Active	–	–	–	–	–	–	–	–	–	–
Clc1cc(Cl)c(OCC#CI)cc1Cl [HALOPROGIN]	–	Not Active	Not Active	Not Active	Not Active	Not Active	Not Active	Not Active	–	–	–	–	–	–	–	–	5.40	5.73
O=c1[nH]cnc2c1ncn2[C@H]1CC[C@@H](CO)O1 [DIDANOSINE]	Not Active	Not Active	Not Active	Not Active	Not Active	Not Active	Not Active	Not Active	–	–	–	–	–	–	–	–	–	–
Cl.NC[C@H]1CC[C@H](C(=O)Oc2ccc(CCC(=O)O)cc2)CC1 [CETRAXATE HYDROCHLORIDE]	Not Active	Not Active	Not Active	Not Active	Not Active	Not Active	Not Active	Not Active	–	–	–	–	–	–	–	–	–	–
COc1cc([C@@H]2c3cc4c(cc3[C@H](O)[C@H]3COC(=O)[C@H]23)OCO4)cc(OC)c1OC [PODOFILOX]	Not Active	Not Active	Not Active	Not Active	Not Active	Not Active	Not Active	Not Active	–	–	–	–	–	–	–	–	–	–
COc1cc(/C=C/C(=O)O)ccc1O [FERULATE]	Not Active	Not Active	Not Active	Not Active	Not Active	Not Active	Not Active	Not Active	–	–	–	–	–	–	–	–	–	–
O=C(O)CCc1nc(-c2ccccc2)c(-c2ccccc2)o1 [OXAPROZIN]	Not Active	Not Active	Not Active	Not Active	Not Active	Not Active	Not Active	Not Active	–	–	–	–	–	–	–	–	–	–
